# Values quoted from earlier work in patent US20070207944A1, “Blood Pressure Lowering Oligopeptides” (priority 2004, published 2007).
# Tests used:
# ACE = ACE (Homo sapiens, UniProt P12821); settings: for ACE inhibiting activity: in vitro, as reported in the literature
# [1] = test system: spontaneously hypertensive rats; settings: Nakamura et al. 1995, tripeptides from fermented milk
# Sequence of ACE (P12821 30-1306, species assumed): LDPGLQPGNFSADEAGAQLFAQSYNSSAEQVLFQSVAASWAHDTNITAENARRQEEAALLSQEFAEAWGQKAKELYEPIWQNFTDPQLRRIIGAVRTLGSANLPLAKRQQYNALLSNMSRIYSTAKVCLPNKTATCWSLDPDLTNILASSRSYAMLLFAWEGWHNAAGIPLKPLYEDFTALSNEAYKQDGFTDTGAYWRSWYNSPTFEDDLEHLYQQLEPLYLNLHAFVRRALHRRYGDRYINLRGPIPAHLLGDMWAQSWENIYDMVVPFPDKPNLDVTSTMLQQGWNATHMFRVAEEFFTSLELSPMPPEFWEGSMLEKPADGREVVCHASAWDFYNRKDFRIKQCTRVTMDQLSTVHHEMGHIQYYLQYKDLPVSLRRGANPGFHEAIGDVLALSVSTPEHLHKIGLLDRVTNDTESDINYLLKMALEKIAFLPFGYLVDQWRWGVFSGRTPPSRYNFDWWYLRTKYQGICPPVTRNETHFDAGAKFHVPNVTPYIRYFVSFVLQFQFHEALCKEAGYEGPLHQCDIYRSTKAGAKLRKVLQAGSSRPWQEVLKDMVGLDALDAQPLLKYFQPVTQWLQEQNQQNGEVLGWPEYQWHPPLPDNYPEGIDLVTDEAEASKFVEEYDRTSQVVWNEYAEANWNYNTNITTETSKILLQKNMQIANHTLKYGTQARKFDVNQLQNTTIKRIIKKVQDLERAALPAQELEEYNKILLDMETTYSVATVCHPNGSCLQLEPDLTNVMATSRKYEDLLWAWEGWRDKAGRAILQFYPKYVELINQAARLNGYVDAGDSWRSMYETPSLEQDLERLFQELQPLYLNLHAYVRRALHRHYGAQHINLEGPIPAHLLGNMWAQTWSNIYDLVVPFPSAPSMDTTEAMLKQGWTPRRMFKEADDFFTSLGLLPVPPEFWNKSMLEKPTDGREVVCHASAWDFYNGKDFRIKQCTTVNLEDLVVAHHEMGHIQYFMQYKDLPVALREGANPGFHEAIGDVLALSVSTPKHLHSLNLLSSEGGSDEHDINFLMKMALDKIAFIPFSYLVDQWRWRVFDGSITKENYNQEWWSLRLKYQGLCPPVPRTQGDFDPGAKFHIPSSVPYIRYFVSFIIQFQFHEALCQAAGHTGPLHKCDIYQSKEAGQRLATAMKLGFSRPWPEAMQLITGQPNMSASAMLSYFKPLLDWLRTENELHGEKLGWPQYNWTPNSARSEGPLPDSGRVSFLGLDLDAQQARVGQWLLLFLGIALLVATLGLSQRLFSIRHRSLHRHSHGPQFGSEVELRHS
ACE inhibiting activity (ACE),Substance,"IC50 (ACE; reported by EP 0 583 074, read-out: IC50 value (ACE inhibition)) [µM]",antihypertensive effects [1]
Strong ACE inhibiting activities,Ile-Pro-Pro [IPP],–,could be confirmed
Strong ACE inhibiting activities,Leu-Pro-Pro [LPP],–,–

Substance,ACE inhibiting activity (ACE),"IC50 (ACE; reported by EP 0 583 074, read-out: IC50 value (ACE inhibition)) [µM]",antihypertensive effects [1]
Val-Pro-Pro [VPP],Strong ACE inhibiting activities,9,could be confirmed
